Laboratory results from patent publication US20240190880A1 (THE REGENTS OF THE UNIVERSITY OF MICHIGAN, priority 2021, published 2024).

biological target: T1, ER (Homo sapiens, UniProt P03372); assay: ER degradation activity, in-cell western blot analysis in T47D cells; format: cell-based; settings: 16 hours, Table A does not say which cell line (T47D or MCF7), read-out: Potency (DC50)
T1 construct: host or cells: T47D and MCF7 human breast cancer cells
T1 sequence (P03372 1-595): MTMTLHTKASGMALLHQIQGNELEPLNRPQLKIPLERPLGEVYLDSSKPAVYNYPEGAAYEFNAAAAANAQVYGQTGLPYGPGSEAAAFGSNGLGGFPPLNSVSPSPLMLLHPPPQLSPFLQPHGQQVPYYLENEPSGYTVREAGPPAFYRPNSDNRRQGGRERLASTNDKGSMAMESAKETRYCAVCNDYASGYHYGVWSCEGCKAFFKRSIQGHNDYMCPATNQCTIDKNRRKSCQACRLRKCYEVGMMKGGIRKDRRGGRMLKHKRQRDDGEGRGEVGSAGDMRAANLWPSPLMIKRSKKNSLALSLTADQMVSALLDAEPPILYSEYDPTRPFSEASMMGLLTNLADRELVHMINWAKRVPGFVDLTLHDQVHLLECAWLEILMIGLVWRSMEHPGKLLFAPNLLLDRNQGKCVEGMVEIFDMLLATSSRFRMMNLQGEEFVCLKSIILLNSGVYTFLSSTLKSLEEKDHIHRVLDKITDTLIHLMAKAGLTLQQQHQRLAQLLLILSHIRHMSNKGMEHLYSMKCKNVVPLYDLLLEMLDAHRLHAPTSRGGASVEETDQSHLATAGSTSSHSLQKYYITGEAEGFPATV
Procedure, shortened: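 ER protein remaining after 16 h compound exposure is quantified in T47D cells by in-cell western, with a no-primary-antibody background control. Values are percentages of DMSO-treated signal.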

SMILES | DC50
CN(CC1CN(c2ccc([C@@H]3c4ccc(O)cc4CC[C@@H]3c3ccccc3)cc2)C1)C1CCC(N2Cc3cc4c(cc3C2)C(=O)N(C2CCC(=O)NC2=O)C4=O)CC1 (stereo partly drawn) [E333, 2-(2,6-dioxopiperidin-3-yl)-6-(4-(((1-(4-((1R,2S)-6-hydroxy-2-phenyl-1,2,3,4-tetrahydronaphthalen-1-yl)phenyl)azetidin-3-yl)methyl)(methyl)amino)cyclohexyl)-6,7-dihydropyrrolo[3,4-f]isoindole-1,3(2H,5H)-dione] | > 100 nM
O=C1CCC(N2C(=O)c3cc4c(cc3C2=O)CCN(C(=O)CN2CC3(CCN(c5ccc([C@@H]6c7ccc(O)cc7CC[C@@H]6c6ccccc6)cc5)CC3)C2)CC4)C(=O)N1 (stereo partly drawn) [E 170, 2-(2,6-dioxopiperidin-3-yl)-7-(2-(7-(4-((1R,2S)-6-hydroxy-2-phenyl-1,2,3,4-tetrahydronaphthalen-1-yl)phenyl)-2,7-diazaspiro[3.5]nonan-2-yl)acetyl)-6,7,8,9-tetrahydroazepino[4,5-f]isoindole-1,3(2H,5H)-dione] | > 100 nM
C[C@@H]1Cc2c([nH]c3ccccc23)[C@@H](c2c(F)cc(C3CCC(C(=O)N4CCC(F)(CN5Cc6cc7c(cc6C5)C(=O)N(C5CCC(=O)NC5=O)C7=O)CC4)CC3)cc2F)N1CC(F)F (stereo partly drawn) [E247, 6-((1-(4-(4-((1R,3R)-2-(2,2-difluoroethyl)-3-methyl-2,3,4,9-tetrahydro-1H-pyrido[3,4-b]indol-1-yl)-3,5-difluorophenyl)cyclohexane-1-carbonyl)-4-fluoropiperidin-4-yl)methyl)-2-(2,6-dioxopiperidin-3-yl)-6,7-dihydropyrrolo[3,4-f]isoindole-1,3(2H,5H)-dione] | 10 to 100 nM
O=C1CCC(N2C(=O)c3cc4c(cc3C2=O)CN(CC2CCN(C(=O)C3(F)CN(c5ccc([C@@H]6c7ccc(O)cc7CC[C@@H]6c6ccccc6)cc5)C3)CC2)C4)C(=O)N1 (stereo partly drawn) [E 203, 2-(2,6-dioxopiperidin-3-yl)-6-((1-(3-fluoro-1-(4-((1R,2S)-6-hydroxy-2-phenyl-1,2,3,4-tetrahydronaphthalen-1-yl)phenyl)azetidine-3-carbonyl)piperidin-4-yl)methyl)-6,7-dihydropyrrolo[3,4-f]isoindole-1,3(2H,5H)-dione] | > 100 nM
O=C1CCC(N2C(=O)c3cc4c(cc3C2=O)CN([C@H]2CC[C@@H](NC3CN(c5ccc([C@@H]6c7ccc(O)cc7CC[C@@H]6c6ccccc6)cc5)C3)CC2)C4)C(=O)N1 (stereo partly drawn) [E 340, 2-(2,6-dioxopiperidin-3-yl)-6-((1S,4s)-4-((1-(4-((1R,2S)-6-hydroxy-2-phenyl-1,2,3,4-tetrahydronaphthalen-1-yl)phenyl)azetidin-3-yl)amino)cyclohexyl)-6,7-dihydropyrrolo[3,4-f]isoindole-1,3(2H,5H)-dione] | > 100 nM
O=C1CCC(N2Cc3cc4c(cc3C2=O)CN(C(=O)[C@H]2CC[C@@H](N3CC(Oc5ccc([C@@H]6c7ccc(O)cc7CC[C@@H]6c6ccccc6)cc5)C3)CC2)C4)C(=O)N1 (single isomer, unassigned) [E 358] | > 100 nM
C[C@@H]1Cc2c([nH]c3ccccc23)[C@@H](c2c(F)cc(C3CCC(CN4CC(CN5Cc6cc7c(cc6C5)C(=O)N(C5CCC(=O)NC5=O)C7=O)C4)CC3)cc2F)N1CC(F)F (stereo partly drawn) [E 283, 6-((1-((4-(4-((1R,3R)-2-(2,2-difluoroethyl)-3-methyl-2,3,4,9-tetrahydro-1H-pyrido[3,4-b]indol-1-yl)-3,5-difluorophenyl)cyclohexyl)methyl)azetidin-3-yl)methyl)-2-(2,6-dioxopiperidin-3-yl)-6,7-dihydropyrrolo[3,4-f]isoindole-1,3(2H,5H)-dione] | > 100 nM
O=C1CCC(N2C(=O)c3cc4c(cc3C2=O)CN(CC2CN(C(=O)C3CN(c5ccc([C@@H]6c7ccc(O)cc7CC[C@@H]6c6ccccc6)cc5)C3)C2)C4)C(=O)N1 (mixture of isomers) [E 158, Rac-2-(2,6-dioxopiperidin-3-yl)-6-((1-(1-(4-((1R,2S)-6-hydroxy-2-phenyl-1,2,3,4-tetrahydronaphthalen-1-yl)phenyl)azetidine-3-carbonyl)azetidin-3-yl)methyl)-6,7-dihydropyrrolo[3,4-f]isoindole-1,3(2H,5H)-dione] | > 100 nM
O=C1CCC(N2C(=O)c3cc4c(cc3C2=O)CN(CC2CCN(C(=O)C3CN(c5ccc([C@@H]6c7ccc(O)cc7CC[C@@H]6c6ccccc6)cc5)C3)CC2)C4)C(=O)N1 (stereo partly drawn) [E 201, 2-(2,6-dioxopiperidin-3-yl)-6-((1-(1-(4-((1R,2S)-6-hydroxy-2-phenyl-1,2,3,4-tetrahydronaphthalen-1-yl)phenyl)azetidine-3-carbonyl)piperidin-4-yl)methyl)-6,7-dihydropyrrolo[3,4-f]isoindole-1,3(2H,5H)-dione] | > 100 nM

The next lines start with the values.

DC50 | SMILES
10 to 100 nM | O=C1CCC(N2C(=O)c3cc4c(cc3C2=O)CN(CC(=O)N2CCC3(CC2)CCN(c2ccc([C@@H]5c6ccc(O)cc6CC[C@@H]5C5CCCCC5)cc2)CC3)C4)C(=O)N1 (mixture of isomers) [E 177, Rac-6-(2-(9-(4-((1R,2R)-2-cyclohexyl-6-hydroxy-1,2,3,4-tetrahydronaphthalen-1-yl)phenyl)-3,9-diazaspiro[5.5]undecan-3-yl)-2-oxoethyl)-2-(2,6-dioxopiperidin-3-yl)-6,7-dihydropyrrolo[3,4-f]isoindole-1,3(2H,5H)-dione]
< 10 nM | O=C1CCC(N2C(=O)c3cc4c(cc3C2=O)CN(CC(=O)N2CCC3(CC2)CCN(c2ccc([C@@H]5c6ccc(O)cc6CC[C@@H]5c5ccccc5)cc2)CC3)C4)C(=O)N1 (stereo partly drawn) [E 149, 2-(2,6-dioxopiperidin-3-yl)-6-(2-(9-(4-((1R,2S)-6-hydroxy-2-phenyl-1,2,3,4-tetrahydronaphthalen-1-yl)phenyl)-3,9-diazaspiro[5.5]undecan-3-yl)-2-oxoethyl)-6,7-dihydropyrrolo[3,4-f]isoindole-1,3(2H,5H)-dione]
> 100 nM | C[C@@H]1Cc2c([nH]c3ccccc23)[C@@H](c2c(F)cc(CN3CCC4(CCC(CN5Cc6cc7c(cc6C5)C(=O)N(C5CCC(=O)NC5=O)C7=O)CC4)CC3)cc2F)N1CC(F)F (stereo partly drawn) [E 380, 6-((3-(4-((1R,3R)-2-(2,2-difluoroethyl)-3-methyl-2,3,4,9-tetrahydro-1H-pyrido[3,4-b]indol-1-yl)-3,5-difluorobenzyl)-3-azaspiro[5.5]undecan-9-yl)methyl)-2-(2,6-dioxopiperidin-3-yl)-6,7-dihydropyrrolo[3,4-f]isoindole-1,3(2H,5H)-dione]
10 to 100 nM | C[C@@H]1Cc2cc(O)ccc2[C@@H](c2c(F)cc(N3CCC4(CCN(CC(=O)N5Cc6cc7c(cc6C5)C(=O)N(C5CCC(=O)NC5=O)C7)C4)CC3)cc2F)N1CC(C)(F)F (stereo partly drawn) [E 34, 3-(6-(2-(8-(4-((1S,3R)-2-(2,2-difluoropropyl)-6-hydroxy-3-methyl-1,2,3,4-tetrahydroisoquinolin-1-yl)-3,5-difluorophenyl)-2,8-diazaspiro[4.5]decan-2-yl)acetyl)-1-oxo-3,5,6,7-tetrahydropyrrolo[3,4-f]isoindol-2(1H)-yl)piperidine-2,6-dione]
< 10 nM | C[C@@H]1Cc2c([nH]c3ccccc23)[C@@H](c2c(F)cc(N3CCC(N4CCC(CC(=O)N5Cc6cc7c(cc6C5)C(=O)N(C5CCC(=O)NC5=O)C7)CC4)CC3)cc2F)N1CC(F)F (stereo partly drawn) [E 94, 3-(6-(2-(1′-(4-((1R,3R)-2-(2,2-difluoroethyl)-3-methyl-2,3,4,9-tetrahydro-1H-pyrido[3,4-b]indol-1-yl)-3,5-difluorophenyl)-[1,4′-bipiperidin]-4-yl)acetyl)-1-oxo-3,5,6,7-tetrahydropyrrolo[3,4-f]isoindol-2(1H)-yl)piperidine-2,6-dione]
> 100 nM | O=C1CCC(N2C(=O)c3cc4c(cc3C2=O)CN(CC(=O)N2CC3(CCN(c5ccc([C@@H]6c7ccc(O)cc7CC[C@@H]6c6ccccc6)cc5F)CC3)C2)C4)C(=O)N1 (mixture of isomers) [E 173, Rac-2-(2,6-dioxopiperidin-3-yl)-6-(2-(7-(2-fluoro-4-((1R,2S)-6-hydroxy-2-phenyl-1,2,3,4-tetrahydronaphthalen-1-yl)phenyl)-2,7-diazaspiro[3.5]nonan-2-yl)-2-oxoethyl)-6,7-dihydropyrrolo[3,4-f]isoindole-1,3(2H,5H)-dione]
> 100 nM | O=C1CCC(N2C(=O)c3cc4c(cc3C2=O)CN(CC(=O)N2CCC3(CC2)CCN(c2ccc([C@@H]5c6ccc(O)cc6CC[C@@H]5c5ccccc5)nc2)CC3)C4)C(=O)N1 (mixture of isomers) [E 305, Rac-2-(2,6-dioxopiperidin-3-yl)-6-(2-(9-(6-((1S,2S)-6-hydroxy-2-phenyl-1,2,3,4-tetrahydronaphthalen-1-yl)pyridin-3-yl)-3,9-diazaspiro[5.5]undecan-3-yl)-2-oxoethyl)-6,7-dihydropyrrolo[3,4-f]isoindole-1,3(2H,5H)-dione]

same assay, conditions: compounds 16 hours, Table A does not say whether T47D or MCF7, read-out: Potency (DC50)

DC50 | SMILES
> 100 nM | C[C@@H]1Cc2cc(O)ccc2[C@H](c2c(F)cc(OC3CC4(CCN(C(=O)CN5Cc6cc7c(cc6C5)C(=O)N(C5CCC(=O)NC5=O)C7=O)CC4)C3)cc2F)N1CC(F)F (stereo partly drawn) [E 456, 6-(2-(2-(4-((1R,3R)-2-(2,2-difluoroethyl)-6-hydroxy-3-methyl-1,2,3,4-tetrahydroisoquinolin-1-yl)-3,5-difluorophenoxy)-7-azaspiro[3.5]nonan-7-yl)-2-oxoethyl)-2-(2,6-dioxopiperidin-3-yl)-6,7-dihydropyrrolo[3,4-f]isoindole-1,3(2H,5H)-dione]
